The subject of assay [1] is U-937 cells. In words: Protection against H2O2 treatment of U-937 cells (cell survival). Conditions: FIG. 13. Format: cell-based. As for the experimental part:
We have made multiple derivatives of PIP-1; these compounds are shown below in Table 2 and in FIG. 11 and labeled Structures 1-39. The neuroprotective effects of structures 1-26 were tested in the cellular assay and compared to the neuroprotective effect of PIP-1 (FIG. 13).
PIP-1 and structures 1-26 were screened for protection against H2O2 treatment of U-937 cells FIG. 13.

The subject of assay [2] is PARG. In words: Table 2: small molecules tested for PARG inhibition activity (relative to PIP-1). Format: biochemical.
For assay [3], the system named is NAD^+ depletion in HL-60 cell lysate. In words: Whole cell assay screen: NAD+ depletion in H2O2-activated HL-60 cell lysate. It is filed as cell-based. As for the experimental part: To identify a non-toxic, non-DNA intercalating, cell permeable small molecule inhibitor of PARG, a high-throughput screen is devised. Given the severe challenges in isolating enough of the PAR substrate for an in vitro screen directly for PARG inhibition, we develop a primary screen that utilizes cell lysates and, in particular, mammalian cell lysates. In this assay, HL-60 cells are treated with H2O2 to damage their DNA (which activates PARP-1) and then lyse the cells. In individual wells of a 384-well plate, this cell lysate is incubated with 22,000 different small molecules from an in-house compound collection; these compounds are either purchased (from ChemBridge Corp.) or collected from various sources at the University of Illinois. (28) NAD^+ levels are measured using a fluorescent method based on the chemical conversion of NAD^+ to a fluorescent product (29, 30) (FIG. 14A). The amount of NAD^+ consumed in each well is monitored, and any compounds that prevent NAD^+ consumption are classified “hits” in this primary screen.
Library screen: 12.5 μL of Lysing PARP buffer (50 mM Tris, 10 mM MgCl2, pH 8.0, 1% Triton X-100) containing 100 μM NAD^+ is added to each well of a 384-well plate. Library compounds at 10 mM in DMSO are transferred using a 384-well pin transfer device that delivers 0.1 μL. HL-60 cells are spun down at 200 g for 5 min. and resuspended in Lysing PARP buffer to a concentration of 8×10^6 cells/mL. 10 μL of a 30% H2O2 solution is added per mL of cells. 12.5 μL of the activated cell lysate is added to the plates. The plates are incubated for 60 min. at 37° C. The concentration of NAD^+ is then determined using a fluorescent assay^1. 10 μL of a 2 M KOH solution and 10 μL of a 20% acetophenone solution (in ethanol) is added to each well. The plate is then incubated at 4° C. for 10 min. 45 μL of a 88% formic acid solution was added to each well. The plate was then incubated for 5 min. in a 110° C. oven. Once the plate cools, the fluorescent intensity of each well is determined on a Criterion Analyst AD (Molecular Devices) with an excitation of 360 nm and an emission of 445 nm.

Assay [4] concerns neuronally differentiated PC-12 cells. Description: Protection from rotenone induced toxicity in neuronally differentiated PC-12 cells. Format: cell-based. As for the experimental part:
Rotenone is a complex I poison and is widely used in cell culture and animal models of PD. (20, 31, 32) To determine if PIP-1 protects cells from rotenone insult, PC-12 cells are neuronally differentiated (with neuronal growth factor β for 10 days) and then treated with 10 μM rotenone and a range of PIP-1 concentrations. After 72 hours, cell death is assessed using propidium iodide staining as measured by flow cytometry. […] To determine the features on PIP-1 that are important for PARG inhibition and cell protection, three derivatives are constructed that lacked key functionality (see FIG. 19 compounds labeled 3, 4 and 5).
Cell culture conditions: HL-60 and SK-N-SH cells are grown in RPMI 1640 media supplemented with 10% FBS and PC-12 cells are grown in RPMI 1640 media supplemented with 10% HS and 5% FBS. All cell lines are incubated at 37° C. in a 5% CO2, 95% air atmosphere. HL-60 cells are split every two to three days as needed and SK-N-SH cells are split when they reach approximately 90% confluency at a 1:6 ratio. SK-N-SH cells are differentiated by adding media containing 10 μM retinoic acid (in DMSO). Media is replaced every other day and cells are differentiated for a total of 12 days. PC-12 cells are differentiated by adding media containing 25 ng/mL Neuronal Growth Factro β. Media is replaced every other day and cells are differentiated for a total of 10 days. Differentiation is observed by microscopy.
Protection of Rotenone and MPP^+ induced toxicity in PC-12 and SK-N-SH cells: SK-N-SH and PC-12 cells are neuronally differentiated as described above. 10 μM rotenone, 10 μM MPP^+ and various concentrations of PIP-1 or its derivatives are added to the cells and incubated for 72 h. The cells are then washed in PBS and the viability is determined by adding propidium iodide to 1 μg/mL and measuring the fluorescent intensity of each cell by flow cytometry.

For assay [5], the target named is PARG (Bos taurus, UniProt O02776). Description: Inhibition of PARG activity in vitro (quantitation of free ADP-ribose with benzamidine, fluorescence). Also on record: purchased Biomol. Format: biochemical. As for the experimental part:
PARG assay: Production and purification of PAR. PARP-1 (20 units) is added to 900 μL of PARP assay buffer containing 1 mM NAD^+ and 22.5 μg activated DNA. This reaction was run at 37° C. for 30 min and stopped by the addition of 300 μL of cold 100% trichloroacetic acid. The proteins thus precipitated are collected by centrifugation at 18,000 g for 30 min at 4° C. After removal of the supernatant, 1 mL of 1 M NaOH and 100 mM EDTA are added to the pellet and incubated for 2 h at 37° C. to cleave the PAR from the PARP protein acceptor. Then 9 mL of PAR buffer A (250 mM ammonium acetate, 6 M guanidinium HCl, 10 mM EDTA, pH 9.0) is added to the PAR and applied to a PROSEP-PB (Millipore) phenyl boronate column that is pre-equilibrated with PAR buffer A. The flowthrough is then reapplied to the column to ensure that all PAR is bound. The column is then washed with 25 mL of PAR buffer A, followed by 10 mL of PAR buffer B (1 M ammonium acetate and 1 mM EDTA, pH 9.0). The bound PAR is eluted with 4 mL of water collected in 1-mL fractions. Fractions containing PAR are pooled and concentrated. The concentration, measured as monomer, is determined by measuring the absorbance at 258 nm. PAR has an extinction coefficient of 13,500 cm^−1 at 258 nm.
Inhibition of PARG Activity: To determine the PARG IC50 values of the compounds, 39 μL of a 25.6 μM solution of PAR in PARG assay (50 mM KCl, 50 mM KH2PO4, pH 7.2) buffer and 1 μL of the compounds at varying concentrations (in PARG assay buffer) are added into the wells of a 384-well plate. The reaction is initiated by the addition of 10 μL of PARG (Biomol) at a concentration of 1 ng/ml (in PARG assay buffer), bringing the final concentration to […] and 20 μM PAR with varying concentrations of compounds in a total volume of 50 μL. The plate is incubated for 20 min at room temperature. The amount of free ADP-ribose hemiacetals is determined by the addition of 5 μL of an aqueous 8.5M KOH solution and 5 μL of an aqueous 850 μM benzamidine solution to each well. The plate is then incubated for 10 min in an oven set at 110° C. The plate is allowed to cool and then read on a Criterion Analyst AD with an excitation of 360 nm and an emission of 445 nm.

Entries after “also recorded” stand apart in the source; their conditions may differ. Read-outs that look alike come from different tables or passages of the source.

The record followed here is patent US20090012088A1 (priority 2005, published 2009).

Chain of PARG (Bos taurus, UniProt O02776) (O02776 whole entry): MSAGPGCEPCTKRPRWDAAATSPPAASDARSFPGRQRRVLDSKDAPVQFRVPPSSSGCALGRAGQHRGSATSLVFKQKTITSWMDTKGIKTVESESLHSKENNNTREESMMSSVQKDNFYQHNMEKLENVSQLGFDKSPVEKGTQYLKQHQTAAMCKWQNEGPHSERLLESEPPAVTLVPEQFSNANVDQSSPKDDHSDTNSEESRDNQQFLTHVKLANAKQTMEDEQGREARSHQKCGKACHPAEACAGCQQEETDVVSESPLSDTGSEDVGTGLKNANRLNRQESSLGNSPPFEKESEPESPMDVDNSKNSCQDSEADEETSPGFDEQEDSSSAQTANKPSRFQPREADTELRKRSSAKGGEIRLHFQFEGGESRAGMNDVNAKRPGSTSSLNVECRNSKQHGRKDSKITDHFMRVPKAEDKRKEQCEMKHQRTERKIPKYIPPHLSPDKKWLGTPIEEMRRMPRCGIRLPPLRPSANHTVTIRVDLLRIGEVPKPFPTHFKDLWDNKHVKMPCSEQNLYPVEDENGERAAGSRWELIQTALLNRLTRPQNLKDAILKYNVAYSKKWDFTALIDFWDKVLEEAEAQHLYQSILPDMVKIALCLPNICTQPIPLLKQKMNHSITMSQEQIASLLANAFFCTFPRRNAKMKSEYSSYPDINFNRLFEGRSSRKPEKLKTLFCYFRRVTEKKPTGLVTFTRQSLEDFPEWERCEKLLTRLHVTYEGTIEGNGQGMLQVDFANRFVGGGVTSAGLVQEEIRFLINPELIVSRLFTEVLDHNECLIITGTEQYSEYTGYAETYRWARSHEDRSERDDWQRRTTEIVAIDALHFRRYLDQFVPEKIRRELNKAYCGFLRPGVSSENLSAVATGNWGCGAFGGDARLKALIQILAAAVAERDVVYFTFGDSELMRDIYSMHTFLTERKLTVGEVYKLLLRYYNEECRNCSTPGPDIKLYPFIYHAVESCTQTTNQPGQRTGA

As for “4-Amino-5-dimethylamino-2-phenyl-2H-pyridazin-3-one [PIP-1]”, the “Protection of U-937 cells treated with H2O2 (activity compared to PIP-1)” value (shortened to “Protection … (activity compared to PIP-1)”) in assay [1] is given as “low or no activity”. Further, in assay [2], the Activity entry is listed as “moderate”.

`CCCCCCNc1c(Cl)cnn(-c2ccccc2)c1=O` [Structure 7]: the Activity result in assay [2] is on record as “low”.

With `Nc1c(Cl)cnn(-c2ccccc2)c1=O` [Structure 8], the Activity result in assay [2] was “low”.

For the molecule `CC(=O)Nc1c(Cl)cnn(-c2ccccc2)c1=O` [Structure 9], in assay [2], the Activity result is “low”.

For `CC(=O)N(C(C)=O)c1c(Cl)cnn(-c2ccccc2)c1=O` [Structure 10], the Activity result in assay [2] was “low”.

For `CCN(CC)c1cnn(-c2ccccc2)c(=O)c1N` [Structure 11], the “Protection … (activity compared to PIP-1)” value in assay [1] is reported as “activity similar or better than PIP-1”. For the same molecule, in assay [2], the Activity entry is given as “good”.

With `CCCN(CCC)c1cnn(-c2ccccc2)c(=O)c1N` [Structure 12], in assay [1], the “Protection … (activity compared to PIP-1)” value is recorded as “activity similar or better than PIP-1”. Also, in assay [2], the Activity entry is “good”.

As to `CCCCN(CCCC)c1cnn(-c2ccccc2)c(=O)c1N` [Structure 13], the “Protection … (activity compared to PIP-1)” value in assay [1] was “activity similar or better than PIP-1”. The Activity result in assay [2] was “good”.

Take `CCCCN(CCCC)c1cnn(-c2ccccc2)c(=O)c1NC(C)=O` [Structure 14]: in assay [1], the “Protection … (activity compared to PIP-1)” value is “low or no activity”. In assay [2], the Activity entry is given as “low”.

As for `CCCCN(CC)c1cnn(-c2ccccc2)c(=O)c1N` [Structure 15], in assay [1], the “Protection … (activity compared to PIP-1)” value is given as “moderate activity”. The Activity entry in assay [2] is “moderate”.

Take `CCCCN(CC)c1cnn(-c2ccccc2)c(=O)c1NC(C)=O` [Structure 16]: the “Protection … (activity compared to PIP-1)” value in assay [1] is given as “low or no activity”. Also, the Activity result in assay [2] is given as “low”.

Take `Nc1c(N2CCCC2)cnn(-c2ccccc2)c1=O` [Structure 17]: the “Protection … (activity compared to PIP-1)” value in assay [1] is recorded as “moderate activity”. Also, the Activity result in assay [2] is given as “moderate”.

On to `CC(=O)Nc1c(N2CCCC2)cnn(-c2ccccc2)c1=O` [Structure 18], for which, in assay [1], the “Protection … (activity compared to PIP-1)” value was “moderate activity”. For the same molecule, the Activity result in assay [2] is recorded as “moderate”.

Consider `Nc1c(N2CCCCC2)cnn(-c2ccccc2)c1=O` [Structure 19], for which the “Protection … (activity compared to PIP-1)” value in assay [1] was “activity similar or better than PIP-1”. The Activity result in assay [2] was “good”.

For the molecule `CC(=O)Nc1c(N2CCCCC2)cnn(-c2ccccc2)c1=O` [Structure 20], the “Protection … (activity compared to PIP-1)” value in assay [1] is “activity similar or better than PIP-1”. The Activity entry in assay [2] is recorded as “good”.

Turning to `Nc1c(N2CCOCC2)cnn(-c2ccccc2)c1=O` [Structure 21], the “Protection … (activity compared to PIP-1)” value in assay [1] was “activity similar or better than PIP-1”. Further, the Activity result in assay [2] is recorded as “good”.

Regarding `CC(=O)Nc1c(N2CCOCC2)cnn(-c2ccccc2)c1=O` [Structure 22], the “Protection … (activity compared to PIP-1)” value in assay [1] is listed as “moderate activity”. Also, the Activity entry in assay [2] is listed as “moderate”.

In the case of `CC(=O)Nc1c(N(C)C)cnn(-c2ccccc2)c1=O` [Structure 24], in assay [1], the “Protection … (activity compared to PIP-1)” value is “moderate activity”. For the same molecule, the Activity entry in assay [2] is “moderate”.

In the case of `CCN(CC)c1cnn(-c2ccccc2)c(=O)c1NC(C)=O` [Structure 25], in assay [1], the “Protection … (activity compared to PIP-1)” value was “moderate activity”. Besides, the Activity result in assay [2] was “moderate”.

On to `CCCN(CCC)c1cnn(-c2ccccc2)c(=O)c1NC(C)=O` [Structure 26], for which the “Protection … (activity compared to PIP-1)” value in assay [1] was “low or no activity”. For the same molecule, the Activity entry in assay [2] is “low”.

Consider `CN(C)c1cnn(C)c(=O)c1N` [Structure 39], for which the Activity entry in assay [2] is given as “low”.

On to `CN(C)c1ccn(-c2ccccc2)c(=O)c1N` [compound 4, 3-Amino-4-dimethylamino-1-phenyl-1H-pyridin-2-one], for which the “Inhibition of NAD+ depletion in the whole cell assay” value in assay [3] is given as “inhibit NAD^+ depletion”. Besides, the “Protection of rotenone-treated neuronally differentiated PC-12 cells (in words)” value in assay [4] (listed as lactam 4) is “virtually identical PARG inhibition and cell protection properties as PIP-1; also recorded: protect”. In addition, the “PARG inhibition in vitro (in words)” value in assay [5] (listed as lactam 4) was “virtually identical PARG inhibition and cell protection properties as PIP-1; also recorded: inhibit PARG activity in vitro”.

Take `CN(C)c1cnn(C)c(=O)c1N` [compound 6, 4-Amino-5-dimethylamino-2-methyl-2H-pyridazin-3-one]: the “Inhibition of NAD+ depletion in the whole cell assay” value in assay [3] is given as “do not inhibit NAD^+ depletion”. In addition, the entries for the “Protection of rotenone-treated neuronally differentiated PC-12 cells (in words)” value in assay [4] and in assay [4] (listed as analogue 6) were “inactive” and “do not protect”, respectively. For the same molecule, the “PARG inhibition in vitro (in words)” value in assay [5] is “inactive”; in assay [5] (listed as analogue 6), “do not inhibit NAD^+ depletion or PARG activity”.

On to `O=c1c(Cl)c(O)cnn1-c1ccccc1` [entry 3, reference compound], for which the “Protection … (activity compared to PIP-1)” value in assay [1] was “low or no activity”. The Activity result in assay [2] is given as “low”.
